# Test results reported in ChEMBL document CHEMBL2040771, “Discovery of a potent inhibitor of anaplastic lymphoma kinase with in vivo antitumor activity” (ACS Med Chem Lett, 2010).
# Assays:
# Insulin receptor = Insulin receptor (Homo sapiens, UniProt P06213); test: Inhibition of insulin receptor
# [1] = Oral bioavailability in rat; assay type: ADME, organism-based; settings: in vivo
# [2] = target: ALK tyrosine kinase receptor (Homo sapiens, UniProt Q9UM73); test: Inhibition of ALK
# ALK tyrosine kinase receptor, sequence (Q9UM73 whole entry): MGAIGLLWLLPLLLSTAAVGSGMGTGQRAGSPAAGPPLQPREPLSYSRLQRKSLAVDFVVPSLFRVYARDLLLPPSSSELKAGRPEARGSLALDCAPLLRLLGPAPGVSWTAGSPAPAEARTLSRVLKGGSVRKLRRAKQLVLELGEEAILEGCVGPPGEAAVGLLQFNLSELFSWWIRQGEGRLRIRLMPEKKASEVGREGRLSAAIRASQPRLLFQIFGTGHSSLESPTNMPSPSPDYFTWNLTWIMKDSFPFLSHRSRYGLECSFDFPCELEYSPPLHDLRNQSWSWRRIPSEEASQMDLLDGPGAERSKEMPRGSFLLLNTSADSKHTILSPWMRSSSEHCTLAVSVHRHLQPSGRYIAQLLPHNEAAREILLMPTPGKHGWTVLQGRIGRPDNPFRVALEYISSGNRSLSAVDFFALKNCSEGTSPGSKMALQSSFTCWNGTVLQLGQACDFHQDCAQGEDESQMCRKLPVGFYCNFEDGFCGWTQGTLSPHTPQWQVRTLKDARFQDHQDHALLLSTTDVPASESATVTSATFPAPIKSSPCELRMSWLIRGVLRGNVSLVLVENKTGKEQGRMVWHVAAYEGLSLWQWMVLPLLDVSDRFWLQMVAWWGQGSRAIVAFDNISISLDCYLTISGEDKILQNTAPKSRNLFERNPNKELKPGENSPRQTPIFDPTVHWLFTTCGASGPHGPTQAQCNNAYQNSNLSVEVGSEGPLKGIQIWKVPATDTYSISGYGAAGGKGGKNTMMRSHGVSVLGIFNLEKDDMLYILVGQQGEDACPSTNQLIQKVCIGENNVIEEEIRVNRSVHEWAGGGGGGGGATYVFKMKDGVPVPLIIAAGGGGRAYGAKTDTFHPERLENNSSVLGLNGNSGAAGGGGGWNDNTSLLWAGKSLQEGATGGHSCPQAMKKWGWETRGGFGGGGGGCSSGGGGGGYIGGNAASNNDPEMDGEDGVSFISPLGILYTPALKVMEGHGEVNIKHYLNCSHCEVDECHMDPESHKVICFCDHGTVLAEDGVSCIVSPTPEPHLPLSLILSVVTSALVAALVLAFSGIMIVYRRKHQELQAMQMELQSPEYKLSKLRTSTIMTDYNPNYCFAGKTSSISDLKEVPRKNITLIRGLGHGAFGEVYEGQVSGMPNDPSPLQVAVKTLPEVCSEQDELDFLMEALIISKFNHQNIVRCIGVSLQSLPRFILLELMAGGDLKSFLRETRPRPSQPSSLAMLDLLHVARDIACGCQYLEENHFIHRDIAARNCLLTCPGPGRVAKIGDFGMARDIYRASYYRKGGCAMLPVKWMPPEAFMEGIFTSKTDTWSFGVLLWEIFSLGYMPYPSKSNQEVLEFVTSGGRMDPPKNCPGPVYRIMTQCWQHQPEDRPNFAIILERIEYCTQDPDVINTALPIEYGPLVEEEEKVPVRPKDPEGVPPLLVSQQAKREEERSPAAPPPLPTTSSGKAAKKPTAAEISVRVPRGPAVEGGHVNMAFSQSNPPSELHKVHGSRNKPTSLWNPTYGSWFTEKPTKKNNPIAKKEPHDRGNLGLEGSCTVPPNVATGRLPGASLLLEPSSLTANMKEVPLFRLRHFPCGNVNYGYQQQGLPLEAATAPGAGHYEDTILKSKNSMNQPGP
# Insulin receptor, sequence (P06213 28-758 limits assumed): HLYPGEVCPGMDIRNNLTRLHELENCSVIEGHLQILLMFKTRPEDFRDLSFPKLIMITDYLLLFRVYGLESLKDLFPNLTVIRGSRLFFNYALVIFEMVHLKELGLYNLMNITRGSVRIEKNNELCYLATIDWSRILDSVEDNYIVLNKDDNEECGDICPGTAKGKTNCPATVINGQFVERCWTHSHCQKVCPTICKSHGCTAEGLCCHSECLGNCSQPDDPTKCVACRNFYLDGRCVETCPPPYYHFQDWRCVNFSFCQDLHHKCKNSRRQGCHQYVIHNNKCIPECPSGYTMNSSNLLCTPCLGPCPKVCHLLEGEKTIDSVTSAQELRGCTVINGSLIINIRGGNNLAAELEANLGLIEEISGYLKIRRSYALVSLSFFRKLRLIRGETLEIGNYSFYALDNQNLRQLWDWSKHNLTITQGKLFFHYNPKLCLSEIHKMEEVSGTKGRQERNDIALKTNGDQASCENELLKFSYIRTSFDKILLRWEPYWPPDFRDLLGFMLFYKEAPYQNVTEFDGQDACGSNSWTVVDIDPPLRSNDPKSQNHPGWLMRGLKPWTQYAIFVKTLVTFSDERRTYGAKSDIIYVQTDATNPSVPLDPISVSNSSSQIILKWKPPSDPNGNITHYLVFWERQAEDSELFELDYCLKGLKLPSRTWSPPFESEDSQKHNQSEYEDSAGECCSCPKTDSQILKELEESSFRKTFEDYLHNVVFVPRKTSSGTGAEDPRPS
# Insulin receptor, sequence (P06213 763-1382 limits assumed): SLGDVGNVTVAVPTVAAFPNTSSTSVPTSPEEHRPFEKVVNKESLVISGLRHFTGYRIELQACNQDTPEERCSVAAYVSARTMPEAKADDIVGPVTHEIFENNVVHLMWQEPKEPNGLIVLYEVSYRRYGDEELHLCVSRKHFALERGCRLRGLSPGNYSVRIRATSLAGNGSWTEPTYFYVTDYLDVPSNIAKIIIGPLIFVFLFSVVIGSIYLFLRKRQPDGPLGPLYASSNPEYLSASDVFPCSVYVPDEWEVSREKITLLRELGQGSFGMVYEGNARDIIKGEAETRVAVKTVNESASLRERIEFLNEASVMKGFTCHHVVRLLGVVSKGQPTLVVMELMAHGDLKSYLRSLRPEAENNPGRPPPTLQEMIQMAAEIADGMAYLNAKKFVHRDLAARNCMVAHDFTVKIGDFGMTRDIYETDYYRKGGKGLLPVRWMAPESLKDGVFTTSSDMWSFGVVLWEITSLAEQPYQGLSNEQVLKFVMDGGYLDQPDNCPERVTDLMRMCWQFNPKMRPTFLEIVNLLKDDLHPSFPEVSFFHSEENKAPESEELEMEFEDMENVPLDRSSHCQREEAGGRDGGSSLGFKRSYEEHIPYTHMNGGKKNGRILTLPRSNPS
IC50 (Insulin receptor) [nM],bioavailability [1] [%],IC50 [2] [nM],Structure (SMILES)
319,,,CN1C(=O)CCCc2cc(Nc3ncc(Cl)c(N[C@@H]4CCCC[C@@H]4C(N)=O)n3)ccc21 (racemic)
37,,,CCN1C(=O)CCCc2cc(Nc3ncc(Cl)c(Nc4ccccc4S(=O)(=O)N(C)C)n3)c(OC)cc21
2010,,,CN1C(=O)CCCc2cc(Nc3ncc(Cl)c(N[C@@H]4CCCC[C@H]4C(N)=O)n3)ccc21 (racemic)
71,,,CCN1C(=O)CCCc2c1ccc(Nc1ncc(Cl)c(Nc3ccccc3S(=O)(=O)N(C)C)n1)c2OC
91,13,,CN1C(=O)CCCc2cc(Nc3ncc(Cl)c(N[C@H]4[C@@H](C(N)=O)[C@@H]5C=C[C@H]4C5)n3)ccc21 (racemic)
247,,568,CNC(=O)c1cccc(Nc2nc(Nc3ccc4c(c3)CCCC(=O)N4C)ncc2Cl)c1
34,,,CCN1C(=O)CCCc2cc(Nc3ncc(Cl)c(Nc4ccccc4C(=O)NC)n3)c(OC)cc21
,9,,CNC(=O)c1ccccc1Nc1nc(Nc2ccc3c(c2)CCCC(=O)N3C)ncc1Cl
215,,,CCN1C(=O)CCCc2c1ccc(Nc1ncc(Cl)c(Nc3ccccc3C(=O)NC)n1)c2OC
10,11,,CNS(=O)(=O)c1ccccc1Nc1nc(Nc2ccc3c(c2)CCCC(=O)N3C)ncc1Cl
32,,,CCN1C(=O)CCCc2c1ccc(Nc1ncc(Cl)c(Nc3ccccc3S(=O)(=O)C(C)C)n1)c2OC
12,,,CCN1C(=O)CCCc2cc(Nc3ncc(Cl)c(Nc4ccccc4S(=O)(=O)C(C)C)n3)c(OC)cc21
89,,,CCN1C(=O)CCCc2cc(Nc3ncc(Cl)c(N[C@H]4[C@@H](C(N)=O)[C@@H]5C=C[C@H]4C5)n3)c(OC)cc21
